“And” between values parts separate entries of the source, which are not always exact repeats. Identical values can stand only once.
Test system: polychromatic cells (PCEs)
Experiment: PCE count in blood by flow cytometry
Format: in vivo, mouse
Details: MMS 100 μg/g body weight IP at 0 and 48 hours
Description: When two dyes are used for simultaneous micronucleus and PCE discrimination, the cell suspension is prepared as follows: The Hoechst 33258 working solution described above is prepared and is filtered through an 0.2 micron Acro-disk (Gilman Sciences). In addition, a propidium iodide (PI) working solution is prepared (5 mg PI/100 ml phosphate buffered saline (PBS)). A buffer-dye solution is then prepared by adding the PI solution (100 μl) and Hoechst 33258 working solution (25 μl) to PBS (867.5 μl). The resulting buffer-dye solution is then dispensed (992.5 μl) into samples tubes. A sample of fixed blood (15 μl) is then added to the corresponding tube. When blood from a malaria (P. berghei) infected mouse was fixed and stained by this procedure, the bivariate pattern shown in FIG. 1B resulted, in which a stronger red fluorescence signal was obtained. In this case, good resolution is achieved if BSA is omitted from the stained cell suspension. The pH of the stained solution is important for good fluorescence emission profiles and resolution of the different cell populations. With Hoechst 33258 and propidium iodide, good results can be obtained in the range from pH 6 to pH 8. Lower or higher pH levels cause a broadening of the fluorescence patterns which adversely affect the resolution of the PCes and micronucleated cells. Operationally,it is advisable to store the fixed samples and analyze freshly stained samples.
Although it is inappropriate to directly compare the number of MNs in the 0 hr and 96 hr samples because of this PCE change, it is possible to normalize the data to take into account said change. An increase in the number of PCEs will cause a decrease in the total number of MNs counted in the PCE window for a 96 hour sample. […]
Another staining embodiment of this invention involves the use of dual parameter data acquisition in conjunction with two dyes, Hoechst 33258 and propidium iodide so as to analyze both MNs and PCEs. […] Propidium iodide endows the PCEs with a strong red fluorescence signal which pulls them out of the RBC contour. […]

Compound: COS(C)(=O)=O [MMS, methyl methanesulfonate]
- PCEs (96 hr) (Hoechst 33258 & propidium iodide): 17,684 PCEs per 500,000 cells and 15,408 PCEs per 500,000 cells and 13,095 PCEs per 500,000 cells and 14,356 PCEs per 500,000 cells
- PCE Factor (K) (96 hr/0 hr) (PCEs 96 hr/PCEs 0 hr per 100,000 total cells): 2.49 and 1.36 and 2.07 and 2.22 and 2.12
